System: normal human lung fibroblasts
Experiment: Ribosomal profiling: translational efficiency in TGFβ-treated fibroblasts
Format: cell-based
Conditions: TGFβ-treated fibroblasts
Experimental: Ribosomal profiling allows for measurement of changes in transcription and translation on a genome-wide basis accompanying TGFβ-dependent transformation of fibroblasts to myofibroblasts. Ribosomal profiles of the TGFβ-treated fibroblasts from Example 1 (about 6×10^6 cells/10 cm plate) were prepared and analyzed for changes in translational efficiencies with respect to potential disease-associated cellular changes accompanying this TGFβ-induced transformation.
Briefly, cells were washed with cold PBS supplemented with cycloheximide and lysed with 1× mammalian cell lysis buffer for 10 minutes on ice. Lysates were clarified by centrifugation for 10 minutes at 14,000 rpm and supernatants were collected. Cell lysates were processed to generate ribosomal protected fragments and total mRNA according to the instructions included with the ARTseq Ribosome Profiling Kit (Illumina, San Diego, Calif.). Sequencing of total RNA (RNA) and of ribosome-protected fragments of RNA (RPF) was carried out using RNA-Seq methodology according to the manufacturer's instructions (Illumina). To analyze the ribosomal profiles, RNA-Seq reads were processed with tools from the FASTX-Toolkit (fastq_quality_trimmer, fastx_clipper and fastx_trimmer). Unprocessed and processed reads were evaluated for a variety of quality measures using FastQC, and processed reads were mapped to the human genome using TopHat (see, e.g., Trapnell et al., Bioinformatics 25:1105, 2009). Gene-by-gene assessment of the number of fragments strictly and uniquely mapping to the coding region of each gene was conducted using HTSeq-count, a component of the HTSeq package. […] Genes with low counts in either RPF or RNA were excluded from differential analyses. Pathway and network analyses of differential data were conducted using Ingenuity Pathway Analysis (IPA).

CC(C)n1nc(-c2cc3cc(O)ccc3[nH]2)c2c(N)ncnc21 [PP242]
− (− = <0.9): renormalizing the translational profile of DNASE1L1 (ENSG00000013563) | renormalizing the translational profile of ADAMTS6 (ENSG00000049192) | renormalizing the translational profile of LETMD1 (ENSG00000050426) | renormalizing the translational profile of PLEKHA5 (ENSG00000052126) | renormalizing the translational profile of HIPK2 (ENSG00000064393) | renormalizing the translational profile of RASSF1 (ENSG00000068028) | renormalizing the translational profile of PABPC1 (ENSG00000070756) | renormalizing the translational profile of PLD1 (ENSG00000075651) | renormalizing the translational profile of EDN1 (ENSG00000078401) | renormalizing the translational profile of AURKA (ENSG00000087586) | renormalizing the translational profile of EPB41L1 (ENSG00000088367) | renormalizing the translational profile of RPL6 (ENSG00000089009) | renormalizing the translational profile of RPLP0 (ENSG00000089157) | renormalizing the translational profile of IGBP1 (ENSG00000089289) | renormalizing the translational profile of IRAK3 (ENSG00000090376) | renormalizing the translational profile of PABPC4 (ENSG00000090621) | renormalizing the translational profile of ACOT7 (ENSG00000097021) | renormalizing the translational profile of ATP5D (ENSG00000099624) | renormalizing the translational profile of LGALS1 (ENSG00000100097) | renormalizing the translational profile of EIF3L (ENSG00000100129) | renormalizing the translational profile of RPL3 (ENSG00000100316) | renormalizing the translational profile of CEP192 (ENSG00000101639) | renormalizing the translational profile of AMMECR1 (ENSG00000101935) | renormalizing the translational profile of PLP2 (ENSG00000102007) | renormalizing the translational profile of EEF1D (ENSG00000104529) | renormalizing the translational profile of C19orf53 (ENSG00000104979) | renormalizing the translational profile of COMP (ENSG00000105664) | renormalizing the translational profile of CORO2A (ENSG00000106789) | renormalizing the translational profile of GDF10 (ENSG00000107623) | renormalizing the translational profile of RPL28 (ENSG00000108107) | renormalizing the translational profile of RPL19 (ENSG00000108298) | renormalizing the translational profile of RASD1 (ENSG00000108551) | renormalizing the translational profile of NAT9 (ENSG00000109065) | renormalizing the translational profile of RPL34 (ENSG00000109475) | renormalizing the translational profile of CRYAB (ENSG00000109846) | renormalizing the translational profile of C12orf57 (ENSG00000111678) | renormalizing the translational profile of MDFI (ENSG00000112559) | renormalizing the translational profile of HBEGF (ENSG00000113070) | renormalizing the translational profile of RPL24 (ENSG00000114391) | renormalizing the translational profile of EEF1B2 (ENSG00000114942) | renormalizing the translational profile of DPH5 (ENSG00000117543) | renormalizing the translational profile of PPL (ENSG00000118898) | renormalizing the translational profile of PLEKHG1 (ENSG00000120278) | renormalizing the translational profile of LIAS (ENSG00000121897) | renormalizing the translational profile of GPSM2 (ENSG00000121957) | renormalizing the translational profile of RPL21 (ENSG00000122026) | renormalizing the translational profile of INHBA (ENSG00000122641) | renormalizing the translational profile of CIT (ENSG00000122966) | renormalizing the translational profile of RPL23 (ENSG00000125691) | renormalizing the translational profile of LAMP5 (ENSG00000125869) | renormalizing the translational profile of NECAB3 (ENSG00000125967) | renormalizing the translational profile of COX7C (ENSG00000127184) | renormalizing the translational profile of LIF (ENSG00000128342) | renormalizing the translational profile of ARHGEF6 (ENSG00000129675) | renormalizing the translational profile of RPL36 (ENSG00000130255) | renormalizing the translational profile of GDF15 (ENSG00000130513) | renormalizing the translational profile of ASS1 (ENSG00000130707) | renormalizing the translational profile of EIF2S3 (ENSG00000130741) | renormalizing the translational profile of RPL27 (ENSG00000131469) | renormalizing the translational profile of MATN3 (ENSG00000132031) | renormalizing the translational profile of PPARG (ENSG00000132170) | renormalizing the translational profile of RARRES3 (ENSG00000133321) | renormalizing the translational profile of KRT7 (ENSG00000135480) | renormalizing the translational profile of IL6 (ENSG00000136244) | renormalizing the translational profile of RPL35 (ENSG00000136942) | renormalizing the translational profile of NOV (ENSG00000136999) | renormalizing the translational profile of IER3 (ENSG00000137331) | renormalizing the translational profile of DDX60 (ENSG00000137628) | renormalizing the translational profile of RPLP1 (ENSG00000137818) | renormalizing the translational profile of PAQR5 (ENSG00000137819) | renormalizing the translational profile of AOX1 (ENSG00000138356) | renormalizing the translational profile of PDE5A (ENSG00000138735) | renormalizing the translational profile of GAS2L3 (ENSG00000139354) | renormalizing the translational profile of DIAPH3 (ENSG00000139734) | renormalizing the translational profile of MYO19 (ENSG00000141140) | renormalizing the translational profile of RPL13A (ENSG00000142541) | renormalizing the translational profile of RPL11 (ENSG00000142676) | renormalizing the translational profile of ACTA1 (ENSG00000143632) | renormalizing the translational profile of PLEKHA6 (ENSG00000143850) | renormalizing the translational profile of RPL32 (ENSG00000144713) | renormalizing the translational profile of RPL37 (ENSG00000145592) | renormalizing the translational profile of BTF3 (ENSG00000145741) | renormalizing the translational profile of CREB5 (ENSG00000146592) | renormalizing the translational profile of DENND2A (ENSG00000146966) | renormalizing the translational profile of RPL10 (ENSG00000147403) | renormalizing the translational profile of EIF3H (ENSG00000147677) | renormalizing the translational profile of RPL7A (ENSG00000148303) | renormalizing the translational profile of EIF3M (ENSG00000149100) | renormalizing the translational profile of JPH2 (ENSG00000149596) | renormalizing the translational profile of FAU (ENSG00000149806) | renormalizing the translational profile of CCDC102B (ENSG00000150636) | renormalizing the translational profile of FRMD4A (ENSG00000151474) | renormalizing the translational profile of HOMER1 (ENSG00000152413) | renormalizing the translational profile of PLEKHH2 (ENSG00000152527) | renormalizing the translational profile of ANKH (ENSG00000154122) | renormalizing the translational profile of ABCA6 (ENSG00000154262) | renormalizing the translational profile of OBSCN (ENSG00000154358) | renormalizing the translational profile of ADAMTS5 (ENSG00000154736) | renormalizing the translational profile of OXA1L (ENSG00000155463) | renormalizing the translational profile of RPL30 (ENSG00000156482) | renormalizing the translational profile of NRG1 (ENSG00000157168) | renormalizing the translational profile of ADAMTS4 (ENSG00000158859) | renormalizing the translational profile of RPL8 (ENSG00000161016) | renormalizing the translational profile of RPL26 (ENSG00000161970) | renormalizing the translational profile of RPL29 (ENSG00000162244) | renormalizing the translational profile of CAMK2N1 (ENSG00000162545) | renormalizing the translational profile of IGFBP7 (ENSG00000163453) | renormalizing the translational profile of RPL22L1 (ENSG00000163584) | renormalizing the translational profile of RPL9 (ENSG00000163682)
++ (++ = 1.5 to 2.0): renormalizing the translational profile of FGF5 (ENSG00000138675)
+++ (+++ = >2.0): renormalizing the translational profile of FMO2 (ENSG00000094963)
+ (+ = 0.9 to 1.5): renormalizing the translational profile of EIF4B (ENSG00000063046) | renormalizing the translational profile of RPL18 (ENSG00000063177) | renormalizing the translational profile of ASPM (ENSG00000066279) | renormalizing the translational profile of RPL31 (ENSG00000071082) | renormalizing the translational profile of P2RX7 (ENSG00000089041) | renormalizing the translational profile of EIF3E (ENSG00000104408) | renormalizing the translational profile of GLTSCR2 (ENSG00000105373) | renormalizing the translational profile of RAB3D (ENSG00000105514) | renormalizing the translational profile of RPL18A (ENSG00000105640) | renormalizing the translational profile of GLCCI1 (ENSG00000106415) | renormalizing the translational profile of GAPDH (ENSG00000111640) | renormalizing the translational profile of IFIH1 (ENSG00000115267) | renormalizing the translational profile of RPL5 (ENSG00000122406) | renormalizing the translational profile of MTUS1 (ENSG00000129422) | renormalizing the translational profile of BIVM (ENSG00000134897) | renormalizing the translational profile of ATP5G2 (ENSG00000135390) | renormalizing the translational profile of HNRNPA1 (ENSG00000135486) | renormalizing the translational profile of HIGD2A (ENSG00000146066) | renormalizing the translational profile of C9orf85 (ENSG00000155621) | renormalizing the translational profile of EEF1A1 (ENSG00000156508)

From patent US9993494B2, “Compositions and methods for treating fibrotic disease” (eFFECTOR Therapeutics, Inc., priority 2014, dated 2018)
